Data taken from US9682033B2, “Methods of treating postherpetic neuralgia with a topical formulation of a spiro-oxindole compound” (Teva Pharmaceuticals International GmbH, priority 2015, dated 2017).

Key:
CYP3A4 = CYP3A4 (Homo sapiens, UniProt P08684); test: Drug-drug interaction study in healthy subjects: midazolam (CYP3A4 substrate) pharmacokinetics (Biological Example 5); conditions: for Tmax / AUC(0-inf) / AUC(0-t) / Cmax: both, human, in vivo; for AUC(0-inf) / AUC(0-t) / Cmax: 3 mg
Excerpt: (§1) This was a single center, open-label, 1-sequence drug-drug interaction study in 32 healthy adult male and female subjects. The study consisted of a 28-day screening period, a 10-day inpatient treatment period, and a follow-up visit. Subjects meeting the study inclusion/exclusion requirements were admitted to the clinical research unit on day −1 and were confined until day 10.
(§2) Blood samples were collected for the assessment of the pharmacokinetics of midazolam and omeprazole.
(§3) The primary pharmacokinetic endpoints were the geometric mean ratios (90% confidence intervals [CIs]) for Cmax, AUC0-t, and AUC0-inf for midazolam and omeprazole on day 9 versus day 1.
(§4) Blood samples were collected for the assessment of the pharmacokinetics of the major metabolites of midazolam (1-OH-midazolam) and omeprazole (5-OH-omeprazole), and for the spiro-oxindole compound. Further secondary pharmacokinetic variables included Cmax, tmax, AUC0-t, AUC0-inf, CL/F, λz, t1/2, and % AUCext for 1-OH-midazolam and 5-OH-omeprazole, on days 1 and 9, and Cmax, morning predose concentrations (Ctrough), average plasma concentration over the dosing interval (Cave), and area under the plasma concentration-time curve over the dosing interval (AUC0-τ) were presented for the spiro-oxindole compound.
(§5) Descriptive statistics (n, mean, geometric mean, standard deviation [SD], % CV, median, minimum, and maximum) were used to summarize plasma midazolam, omeprazole and their metabolites, and the spiro-oxindole compound concentration for all subjects overall at each scheduled time point. Descriptive statistics (as noted above) were also used to summarize plasma omeprazole, 5-OH-omeprazole, and the spiro-oxindole compound concentration for all subjects overall by CYP2C19 genotype at each scheduled time point. Pharmacokinetic parameters were derived by noncompartmental analysis. Descriptive statistics (as noted above) were used to summarize the calculated pharmacokinetic parameters for midazolam, omeprazole and their metabolites, and the spiro-oxindole compound by treatment for all subjects. Descriptive statistics (as noted above) were also used to summarize the calculated pharmacokinetic parameters for omeprazole, 5-OH-omeprazole, and the spiro-oxindole compound by treatment and CYP2C19 genotype. Plots of geometric mean and individual plasma concentrations and of select pharmacokinetic parameters for midazolam, omeprazole and their metabolites and the spiro-oxindole compound at select sampling times were provided. Additionally, plots of individual select pharmacokinetic parameters by CYP2C19 phenotype for omeprazole at select time points were provided.

[1] = tested on: streptozotocin-induced neuropathic pain model; test: Streptozotocin-induced neuropathic pain model, mechanical allodynia (paw withdrawal threshold); assay type: in vivo, rats; conditions: rats, topical, 30 minutes after the dose
Excerpt: Topical 4% Test Pharmaceutical Composition was compared with lidocaine and diclofenac for relief of mechanical allodynia in the streptozotocin-induced neuropathic pain model in rats.

CYP2C19 = test: clinical; conditions: both, human, in vivo, 20 mg
Excerpt: as §1, §2, §3, §4, §5

[2] = 1-OH metabolite after oral midazolam, day 1
[3] = 1-OH metabolite after oral midazolam, day 9

Sequence of CYP3A4 (P08684 whole entry): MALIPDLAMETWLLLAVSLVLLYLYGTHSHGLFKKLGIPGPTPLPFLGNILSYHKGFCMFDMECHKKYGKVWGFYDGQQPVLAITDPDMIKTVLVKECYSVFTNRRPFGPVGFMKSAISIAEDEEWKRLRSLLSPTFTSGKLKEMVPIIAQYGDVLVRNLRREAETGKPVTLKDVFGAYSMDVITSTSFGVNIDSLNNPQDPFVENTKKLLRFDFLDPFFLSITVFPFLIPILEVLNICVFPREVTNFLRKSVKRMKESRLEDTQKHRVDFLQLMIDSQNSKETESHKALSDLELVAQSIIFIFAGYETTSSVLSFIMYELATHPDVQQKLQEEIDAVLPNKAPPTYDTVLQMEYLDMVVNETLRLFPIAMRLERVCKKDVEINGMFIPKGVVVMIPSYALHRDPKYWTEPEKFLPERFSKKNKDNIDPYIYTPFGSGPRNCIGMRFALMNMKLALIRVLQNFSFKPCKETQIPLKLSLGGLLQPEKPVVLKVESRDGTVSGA

## OCc1ncc2n1-c1ccc(Cl)cc1C(c1ccccc1F)=NC2 [1-OH-midazolam]
CYP3A4; 1-OH metabolite after oral midazolam, both days 1 and 9
  tmax (median): 0.75 h
CYP3A4; [2]
  AUC0-inf (geometric): 16.83 ng·h/mL
  AUC0-t (geometric): 15.82 ng·h/mL
  Cmax (geometric mean): 7.33 ng/mL
  t1/2 (geometric mean): 4.39 h
CYP3A4; [3]
  AUC0-t (geometric): 17.18 ng·h/mL
  Cmax (geometric mean): 6.67 ng/mL
  t1/2 (geometric mean): 4.68 h

## O=C(O)Cc1ccccc1Nc1c(Cl)cccc1Cl [diclofenac]
[1]
  paw withdrawal threshold for the drug-treated paw (mechanical hyperalgesia): no significant increase in threshold

## CCN(CC)CC(=O)Nc1c(C)cccc1C [lidocaine]
[1]
  paw withdrawal threshold for the drug-treated paw (mechanical hyperalgesia): no significant increase in threshold

## Cc1ncc2n1-c1ccc(Cl)cc1C(c1ccccc1F)=NC2 [midazolam, reference compound]
CYP3A4
  Tmax: 0.75 h
  AUC(0-inf): 40.7 ng·h/mL
  AUC(0-t): 39.4 ng·h/mL
  Cmax: 14.6 ng/mL
CYP3A4; po
  Tmax: 0.63 h
  AUC(0-inf): 43.8 ng·h/mL
  AUC(0-t): 42.2 ng·h/mL
  Cmax: 16.9 ng/mL

## COc1ccc2[nH]c([S+]([O-])Cc3ncc(C)c(OC)c3C)nc2c1 (centres unmarked) [omeprazole]
CYP2C19
  Tmax: 2.5 h
CYP2C19; po
  AUC0-inf (geometric mean): 633.97 ng·h/mL
  AUC0-t (geometric mean): 556.16 ng·h/mL
  Cmax (geometric mean): 227.04 ng/mL
  Tmax: 2 h
CYP2C19; po, AUC0-inf (geometric mean)
  AUC(0-inf): 635 ng·h/mL
CYP2C19; po, AUC0-t (geometric mean)
  AUC(0-t): 545 ng·h/mL
CYP2C19; po, Cmax (geometric mean)
  Cmax: 227 ng/mL
